{
  "source": "patent US20220265712A1",
  "about": "“POPULATIONS OF NATURAL KILLER CELLS FOR TREATING CANCERS” (CELULARITY INC., priority 2019, published 2022)",
  "key": {"CD34+ cells [1]": {"tested_on": "CD34+ cells", "assay": "NK cell expansion from CD34+ cells cultured with CRL compounds (three-stage NK culture, Day 35)", "type": "cell-based, human", "conditions": "10 μM; for cell expansion, rank among all the compounds / expansion compared to SR1: Day 35; for expansion, differentiation and cytotoxicity profiles compared to SR1: PNK-007 culture; for expansion compared to SR1: SR1 10 μM positive control", "from_the_text": "(§1) UCB CD34+ cells were cultivated in presence of cytokines including thrombopoietin, SCF, Flt3 ligand, IL-7, IL-15 and IL-2 for 35 days to produce three-stage NK cells, as described in Example 1. Multi-color flow cytometry was used to determine the phenotypic characteristics of three-stage NK cells.\n(§2) For biological testing, the compounds were provided to culture to evaluate their effects on NK cell expansion and differentiation. Specifically, donors of CD34+ cells (StemCell Technology) were thawed and expanded in vitro following NK culture protocol. During the first 14 days of the culture, each CRL compounds was dissolved in DMSO and added to the culture at 10 μM concentration. SR1 (at 10 μM) served as a positive control compound, while DMSO alone without any compound served as a negative control. At the end of the culture on Day 35, cell expansion, natural killer (NK) cell differentiation and cytotoxicity of the cells against K562 tumor cell line were characterized. Due to the large number of the compounds, the testing was performed in two experiments, CRL1-11 and CRL 12-22. The same donors were used for each experiment. Positive and negative controls were also included in both experiments."}, "CD34 cells": {"tested_on": "CD34 cells", "assay": "CD34 cell expansion at Day 14 of the culture", "type": "cell-based, human", "conditions": "10 μM", "protocol": "as §2"}, "K562 tumor cells": {"tested_on": "K562 tumor cells", "assay": "Cytotoxicity assay of compound cultured cells against K562 tumor cells", "type": "cell-based", "conditions": "10:1 effector to target ratio; both donors", "protocol": "as §2\nCytotoxicity assay was run using compound cultured cells against K562 tumor cells at 10:1 effector to target ratio (FIG. 5) to evaluate cell functions."}, "CD34+ cells [2]": {"tested_on": "CD34+ cells", "assay": "NK cell differentiation of compound cultured cells (flow cytometry)", "type": "cell-based, human", "conditions": "compared to SR1", "from_the_text": "as §1, §2"}, "NDMM patients": {"tested_on": "NDMM patients", "conditions": "cited from earlier work"}},
  "note": "Like-named read-outs stand apart in the source and are kept apart here.",
  "data": [
    {"smiles": "Fc1cncc(-c2nc(NCCc3c[nH]c4ccccc34)c3occc3n2)c1", "note": "[CRL19, N-(2-(1H-indol-3-yl)ethyl)-2-(5-fluoropyridin-3-yl)furo[3,2-d]pyrimidin-4-amine]", "values": [
      {"measurement": "cell expansion, rank among all the compounds", "setting": "CD34+ cells [1]", "value": "supported cell expansion the best"},
      {"measurement": "expansion, differentiation and cytotoxicity profiles compared to SR1", "setting": "CD34+ cells [1]", "value": "very similar expansion, differentiation and cytotoxicity profiles as SR1"},
      {"measurement": "CD34 cell expansion", "setting": "CD34 cells", "value": "achieved the highest CD34 cell expansion"}
    ]},
    {"smiles": "Cc1cncc(-c2nc(NCCc3c[nH]c4ccccc34)c3scc(C(C)C)c3n2)c1", "note": "[CRL21, N-(2-(1H-indol-3-yl)ethyl)-7-isopropyl-2-(5-methylpyridin-3-yl)thieno[3,2-d]pyrimidin-4-amine]", "values": [
      {"measurement": "expansion compared to SR1", "setting": "CD34+ cells [1]", "value": "slightly less expansion compared to SR1"},
      {"measurement": "killing activities compared to cells cultured with SR1", "setting": "K562 tumor cells", "value": "increased killing activities of the cells"},
      {"measurement": "CD56+/CD11a+ subpopulation", "setting": "CD34+ cells [2]", "value": "increased CD56+/CD11a+ subpopulation"}
    ]},
    {"smiles": "N#Cc1cncc(-c2nc(NCCc3c[nH]c4ccccc34)c3occc3n2)c1", "note": "[CRL22, 5-(4-((2-(1H-indol-3-yl)ethyl)amino)furo[3,2-d]pyrimidin-2-yl)nicotinonitrile]", "values": [
      {"measurement": "cell expansion, rank among all the compounds", "setting": "CD34+ cells [1]", "value": "supported cell expansion the best"},
      {"measurement": "expansion, differentiation and cytotoxicity profiles compared to SR1", "setting": "CD34+ cells [1]", "value": "very similar expansion, differentiation and cytotoxicity profiles as SR1"},
      {"measurement": "CD34 cell expansion", "setting": "CD34 cells", "value": "achieved the highest CD34 cell expansion"}
    ]},
    {"smiles": "Nc1cccc2c1CN(C1CCC(=O)NC1=O)C2=O", "note": "(stereo not shown) [lenalidomide, 3-(4′ aminoisoindoline-1′-one)-1-piperidine-2,6-dione]", "values": [
      {"measurement": "ORR (VGPR or better)", "setting": "NDMM patients; 1 year post ASCT", "value": 48, "unit": "%"},
      {"measurement": "ORR (VGPR or better)", "setting": "NDMM patients; 2 year post ASCT", "value": 36, "unit": "%"},
      {"measurement": "hazard ratio for TTP versus placebo", "setting": "NDMM patients; 95% CI 0.46-0.71, p<0.0001", "value": 0.57},
      {"measurement": "median TTP", "setting": "NDMM patients; 95% CI 44.2-73.3, not accounting for crossover", "value": 57.3, "unit": "months"}
    ]},
    {"smiles": "CC(C)c1csc2c(NCCc3c[nH]c4ccccc34)nc(-c3cncc(C#N)c3)nc12", "note": "[CRL17, 5-(4-((2-(1H-indol-3-yl)ethyl)amino)-7-isopropylthieno[3,2-d]pyrimidin-2-yl)nicotinonitrile]", "values": [
      {"measurement": "expansion compared to SR1", "setting": "CD34+ cells [1]", "value": "slightly less expansion compared to SR1"},
      {"measurement": "killing activities compared to cells cultured with SR1", "setting": "K562 tumor cells", "value": "increased killing activities of the cells"},
      {"measurement": "CD56+/CD11a+ subpopulation", "setting": "CD34+ cells [2]", "value": "increased CD56+/CD11a+ subpopulation"}
    ]},
    {"smiles": "CC(C)c1csc2c(NCCc3c[nH]c4ccccc34)nc(-c3cncc(F)c3)nc12", "note": "[CRL18, N-(2-(1H-indol-3-yl)ethyl)-2-(5-fluoropyridin-3-yl)-7-isopropylthieno[3,2-d]pyrimidin-4-amine]", "values": [
      {"measurement": "expansion compared to SR1", "setting": "CD34+ cells [1]", "value": "slightly less expansion compared to SR1"},
      {"measurement": "killing activities compared to cells cultured with SR1", "setting": "K562 tumor cells", "value": "increased killing activities of the cells"},
      {"measurement": "CD56+/CD11a+ subpopulation", "setting": "CD34+ cells [2]", "value": "increased CD56+/CD11a+ subpopulation"}
    ]},
    {"smiles": "Cc1cncc(-c2nc(NCCc3c[nH]c4ccccc34)c3occc3n2)c1", "note": "[CRL20, N-(2-(1H-indol-3-yl)ethyl)-2-(5-methylpyridin-3-yl)furo[3,2-d]pyrimidin-4-amine]", "values": [
      {"measurement": "cell expansion, rank among all the compounds", "setting": "CD34+ cells [1]", "value": "supported cell expansion the best"},
      {"measurement": "expansion, differentiation and cytotoxicity profiles compared to SR1", "setting": "CD34+ cells [1]", "value": "very similar expansion, differentiation and cytotoxicity profiles as SR1"},
      {"measurement": "CD34 cell expansion", "setting": "CD34 cells", "value": "achieved the highest CD34 cell expansion"}
    ]}
  ]
}
